Source: US5883074A, “Potentiators of antibacterial agents” (priority 1995, dated 1999)
Like-named read-outs stand apart in the source and are kept apart here.

Assays:
E. faecalis VanA strain [1] = assay: Vancomycin potentiation screen VPS-20; type: cell-based; conditions: Enterococcus faecalis, 10 ug/ml test compound
Procedure: (§1) In the VPS-20 protocol, vancomycin is used at 20 ug/ml, test compounds are used at 10 ug/ml (this is not critical, a range could be used as well). The growth medium is Brain Heart Infusion broth however, any of a variety of media which will support growth of the specific bacterial strain can be used. The VPS-D-Ala screen uses 8 ug/ml of vancomycin and 50 mM D-alanine. This amino acid is added to feed the bacteria excess alanine, which allows the bacteria to incorporate the alanine in some cases instead of incorporating the (resistance causing) D-lactate in the pentapeptide termini of the cell wall precursor. The presence of this D-alanine supplement thus makes the assay less stringent.
(§2) Inoculate E. faecalis VanA strain in BHI broth (pick a few colonies into 3 ml BHI with 2.56 ug/ml vancomycin and grow O/N at 35° C. in a shaker rotating at 225 rpm.
(§3) Dilute the O/N culture 1:50 in BHI with 2.56 ug/ml vancomycin (0.5 ml±24.5 ml BHI) in a 125-ml flask, put back in the 35° C. shaker until the cells grow to early log phase (OD600 about 0.2, takes approximately 2 hrs). Make a 1:800 dilution of the log phase culture with BHI broth. 50 ul of these diluted cells will be used as the inoculum in the assay as described below. Add the inoculum after the other reagents.
(§4) Meanwhile, test the inoculum concentration and purity: Make 3 serial 10-fold dilutions of the inoculum in 0.2 ml BHI broth. Plate 100 ul on TSA agar plates (trypticase soy agar), incubate at 35° C. O/N, count the colonies to estimate the CFU/ml in the inoculum (it should be 10^4 -10^5 CFU/ml).
(§5) Make vancomycin stock at 50 mg/ml in ddH2 O. Filter sterilize with 0.2 um filter, and keep in the freezer. On the day of the assay, dilute vancomycin to 50 ug/ml (for VPS-20) or 54 ug/ml (for VPS-D-ala) in BHI broth.
(§6) The test compounds are from 0.1 mg/ml plates in 10% DMSO, 90% 50 mM HEPES, pH 7.3. Thaw at room temperature.
1. […]
(§7) 11. […] Remove mylar lids and check the cell density (A600) in 21-24 hours using a microtiter plate reader. The plates will need to be agitated carefully to resuspend the cells before reading.

E. faecalis VanA strain [2] = assay: Vancomycin potentiation screens VPS-20 and VPS-D-ala; type: cell-based, Enterococcus faecalis; conditions: 10 ug/ml test compound; for intrinsic activity against the control cells: no vancomycin; for vancomycin potentiation screen result: VPS-20 and/or VPS-D-ala
Procedure: as §1, §2, §3, §4, §5
Prepare D-alanine (Sigma) at 800 mM in ddH2O. Filter sterilize with 0.2 um filter.
as §6
1. Take 40 ul 50 ug/ml vancomycin in BHI to each well of the assay plate (Final volume will be 100 ul, making vancomycin concentration 20 ug/ml)
2. For each assay plate, prepare a toxicity control plate; instead of pipetting 40 ul of the vancomycin, use 40 ul of BHI broth in each well of the assay plate.
3. Dilute 800 mM D-alanine to 200 mM in BHI broth, take 25 ul of the 200 mM D-alanine to both the assay plate and the toxic control plate.
4. Take 15 ul of 54 ug/ml vancomycin in BHI to each well of the assay plate (Final volume will be 100 ul, making vancomycin concentration 8 ug/ml)
5. For each assay plate, prepare a toxicity control plate; instead of pipetting 15 ul of the vancomycin, use 15 ul of BHI broth in each well of the assay plate.
6. Take 10 ul/well of the test compounds to the assay plates and the toxicity control plates. Do this in perfect register in the microtiter plates (change tips), and work using sterile technique (Final concentration will be 10 ug/ml test compounds, 1% DMSO). This must be done with separate tips, in perfect register.
7. Add 10 ul of 10% DMSO, 90% 50 mM HEPES, pH 7.3 in columns 1 and 12 in each plates.
8. Inoculate all wells in columns 2 to 11 with 50 ul 1/800 diluted log phase culture (prepared as indicated above). Use 50 ul sterile BHI instead of inoculum for the negative growth controls in well A-D in columns 1 and well E-H in columns 12. Add 50 ul of inoculum to Wells E-H in columns 1 and wells A-D in columns 12 for the positive growth controls.
as §7

[3] = system: Enterococcus faecalis VanA; assay: Vancomycin MIC of the test strain; checkerboard with D-alanine; type: cell-based
Procedure: In addition, in the bacterial strain used in the assays below, vancomycin induces the resistance mechanism. […] However, it is likely that the VPS-8 protocol (or one with a similar glycopeptide concentration)will be useful in conjunction with bacterial strains in which the glycopeptide resistance is not induced by a glycopeptide, such as strains in which the resistance is constitutively expressed.
9. […] 25 ul of the 800 mM D-alanine, 15 ul of 134 ug/ml vancomycin, 10 ul of 10% DMSO, 90% 50 mM HEPES, pH 7.3, 50 ul of BHI broth (negative control) or the inoculum (positive control).

MRSA Col cells = assay: Time-kill curve with methicillin; type: cell-based, Staphylococcus aureus; conditions: methicillin only; at 24 hours
Procedure: FIG. 3a is a graph of the number of viable MRSA Col cells/ml versus growth time in hours as determined by the method of Example 4. The graph presents the time kill curve for the first potentiating compound from FIG. 1 at 10 μg/ml with methicillin at 20 μg/ml, and curves for controls (drug-free, methicillin only, and potentiator only). Viable cell counts for all controls were greater than 5×10^8 cells/ml at 24 hours, while the viable cell count for methicillin plus potentiator was approximately 5×10^3 cells/ml after 24 hours.
A standard time-kill method (see Eliopolous & Moellering, Ch. 13 in Antibiotics in Laboratory Medicine, 3rd ed., Lorian ed., at pp. 441-444) is used to characterize whether the potentiator-drug combination is bacteriostatic or bactericidal. As controls, normal growth of the pathogen (without drug or potentiator) and the effects of the drug alone and the potentiator alone are assessed using the same inoculum culture as is used in the combination time-kill test. Either bacteriostatic or bactericidal effect should be confirmed for the potentiators to progress to further testing.

MRSA = assay: Potentiation screening assay: methicillin MIC reduction in MRSA; type: cell-based, Staphylococcus aureus; conditions: Staphylococcus aureus; MRSA, methicillin alone
Procedure: After regrowth at 35° C. to an OD600 of 0.2-0.4 (1-2 hrs.), the cells are diluted 1/1000 in MHB. […] The plate is placed in a humidified 35° C. incubator for 5-24 hours, and cell growth or inhibition is read as turbidity (OD600). Two positive and one negative controls for growth are cells grown MHB, cells grown in MHB plus 20 μg/ml methicillin alone (without test compound), and uninoculated MHB respectively.
Compounds which meet the first two criteria for follow-up are evaluated in a standard microdilution assessment of the MIC with methicillin for MRSA. (see Lorian, Antibiotics in Laboratory Medicine, 3rd ed., pp. 72-75 (1991).) In order to be carried further, the MIC of methicillin preferably is reduced in the presence of the potentiator to at most twice the MIC of a susceptible strain for methicillin.
MICs for the compounds were determined in the presence of 0, 5, and 10 μg/ml of each compound. MRSA cells were grown in the presence of 0, 5, and 10 μg/ml test compound and concentrations of methicillin obtained from serial two-fold dilutions starting at 1024 μg/ml to 0.002 μg/ml (This range can be extended or refined as appropriate.) as follows: A fresh inoculum of MRSA cells was grown at 35° C. in Mueller-Hinton Broth (MHB) overnight and then diluted 1/50 in the same medium. After regrowth at 35° C. to an OD600 of 0.2-0.4 (1-2 hrs.), the cells were diluted 1/1000 in MHB. […] The plate was placed in a humidified 35° C. incubator for 24 hours, and cell growth or inhibition was read as turbidity (OD600).

[4] = system: Enterococcus faecalis VanB; assay: Checkerboard assay / dose range study with vancomycin; type: cell-based
Source text: (§8) FIG. 9a provides the results of checkerboard assays showing the MIC reduction for vancomycin in the presence of a range of concentrations of brazilin against two Enterococcus faecalis strains, one VanA and the other VanB. […] Similarly, FIG. 9b provides the results of checkerboard assays showing the MIC reduction for vancomycin in the presence of a range of concentrations of 6-ethyl-7-[1-oxo-3-(1-pyrrolidino)]propyl-1,2,3,4-tetrahydro-1,1,4,4-tetramethylnaphthalene (EOPPTTN).
(§9) Two of the three compounds (brazilin and 6-ethyl-7-[oxo-3-(1-pyrrolidino)]propyl-1,2,3,4-tetrahydro-1,1,4,4-tetramethylnaphthalene) have been examined for synergy with vancomycin. […] Two examples of reasons for alterations are for further optimization, and for modification for use with other bacterial strains or species.

[5] = system: Enterococcus faecalis VanA; assay: as above; type: cell-based
Source text: as §8, §9

[6] = no vancomycin, read-out: percent intrinsic inhibition in the VPS-20 control (without vancomycin)

## O=C(NCc1ccccc1)c1ccccc1S [N-benzyl thiosalicylamide]
E. faecalis VanA strain [1]; 20 ug/ml vancomycin, read-out: percent growth inhibition in the VPS-20 assay (with vancomycin)
  inhibition at 10 µg/mL: 88%
E. faecalis VanA strain [1]; [6]
  inhibition at 10 µg/mL: 4%
E. faecalis VanA strain [2]
  intrinsic activity against the control cells: little intrinsic activity
  vancomycin potentiation screen result: very potent inhibitor in the assay

## CN[C@H](CC(C)C)C(=O)N[C@H]1C(=O)N[C@@H](CC(N)=O)C(=O)N[C@H]2C(=O)N[C@H]3C(=O)N[C@H](C(=O)N[C@H](C(=O)O)c4cc(O)cc(O)c4-c4cc3ccc4O)[C@H](O)c3ccc(c(Cl)c3)Oc3cc2cc(c3O[C@@H]2O[C@H](CO)[C@@H](O)[C@H](O)[C@H]2O[C@H]2C[C@](C)(N)[C@H](O)[C@H](C)O2)Oc2ccc(cc2Cl)[C@H]1O [vancomycin]
[3]; 200 mM D-alanine
  MIC of vancomycin in the presence of D-alanine: 16 µg/mL
[3]; Enterococcus faecalis, read-out: MIC of vancomycin
  MIC: 512 µg/mL

## COc1cccc(OC)c1C(=O)N[C@@H]1C(=O)N2[C@@H]1SC(C)(C)[C@@H]2C(=O)O [methicillin, reference compound]
MRSA Col cells
  viable cell count, methicillin only (control): greater than 5×10^8 cells/ml
MRSA
  MIC: > 100 µg/mL

## Oc1ccc2c(c1)OC[C@]1(O)Cc3cc(O)c(O)cc3[C@H]21 [brazilin]
E. faecalis VanA strain [1]; [6]
  inhibition at 10 µg/mL: 32%
[4]; compound 0-20 μg/ml, VanB
  vancomycin MIC reduction in checkerboard assay: significant reduction in the vancomycin MIC
[4]; dose range study, VanB phenotype
  synergy with vancomycin: synergy
[5]; compound 0-20 μg/ml, VanA
  vancomycin MIC reduction in checkerboard assay: significant reduction in the vancomycin MIC
[5]; dose range study, VanA phenotype
  synergy with vancomycin: synergy
E. faecalis VanA strain [2]
  intrinsic activity against the control cells: some intrinsic activity against the control cells
  vancomycin potentiation screen result: positive, but less than N-benzyl thiosalicylamide
